The record followed here is PubChem BioAssay (NCI).

Test systems include ACHN renal; CAKI-1 renal; DU-145 prostate; HOP-62 NSCLC; K-562 leukemia; M14 melanoma; SK-MEL-2 melanoma; SN12C renal; SNB-19 CNS; SNB-75 CNS.
What all share (experiment): NCI-60 cell line screen, 48 h

“And” between values parts separate entries of the source, which are not always exact repeats. Identical values can stand only once.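 In this assay, cells in 96-well plates receive the compound at five concentrations for 48 hours. Endpoints are linearly interpolated between the surrounding concentrations. Abbreviation: GI50, concentration required for 50% inhibition of growth. TGI is the concentration that stops growth completely.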

As for `C=C1C(=O)O[C@H]2[C@H]1CC/C(COC(=O)/C=C\C(=O)NCc1ccc(Cn3c(=O)sn(CCI)c3=O)cc1)=C\CC[C@@]1(C)O[C@@H]21`, the GI50 with ACHN renal was 1.93 µM; in the assay with CAKI-1 renal, 1.66 µM; in the assay with DU-145 prostate, 3.61 µM; with HOP-62 NSCLC, 15.1 µM; in the assay on K-562 leukemia, 2.45 µM; in the assay on M14 melanoma it was 6.25 µM. In addition, the GI50 in the assay on SK-MEL-2 melanoma is 11.1 µM; in the assay on SN12C renal, 3.15 µM; in the assay on SNB-19 CNS, 11.4 µM; with SNB-75 CNS, 4.24 µM. In addition, the TGI is 3.74 µM in the assay with ACHN renal; 3.03 µM with CAKI-1 renal; 13.2 µM in the assay on DU-145 prostate; 28.6 µM in the assay on HOP-62 NSCLC; over 100 µM in the assay on K-562 leukemia; 19.7 µM in the assay on M14 melanoma. Besides, the TGI in the assay with SK-MEL-2 melanoma came out at 23.4 µM; with SN12C renal, 10.8 µM; with SNB-19 CNS, 24.7 µM; in the assay with SNB-75 CNS, 18.5 µM.

In the case of `COc1cc([N+](=O)[O-])c(S(=O)(=O)O)cc1-n1nc(C(=O)Nc2ccccc2)n[n+]1-c1cc(S(=O)(=O)[O-])c([N+](=O)[O-])cc1OC`, the TGI in the assay on ACHN renal, with CAKI-1 renal, in the assay with DU-145 prostate, in the assay on HOP-62 NSCLC, in the assay with K-562 leukemia and in the assay with M14 melanoma was over 100 µM throughout. In addition, the TGI with SK-MEL-2 melanoma, in the assay with SN12C renal, with SNB-19 CNS and in the assay on SNB-75 CNS was over 100 µM in each case.

As for `CCN(CC)c1ccc(-c2cc(-c3cc(OC)c(OC)c(OC)c3)nc(N3CCC(O)CC3)c2C#N)cc1`, the GI50 was 0.406 µM in the assay on ACHN renal; 0.0334 µM in the assay on CAKI-1 renal; 0.877 µM in the assay with DU-145 prostate; 1.01 µM with HOP-62 NSCLC; 0.353 µM in the assay with K-562 leukemia; 0.262 µM in the assay with M14 melanoma. For the same molecule, the GI50 in the assay with SK-MEL-2 melanoma is 0.289 µM; in the assay with SN12C renal, 0.626 µM; in the assay with SNB-19 CNS, 1.72 µM; in the assay with SNB-75 CNS, 0.321 µM. Further, the TGI was over 42.5 µM in the assay with ACHN renal; 0.708 µM with CAKI-1 renal; 14.6 µM in the assay with DU-145 prostate; 11.9 µM in the assay with HOP-62 NSCLC; 2.13 µM in the assay with K-562 leukemia; 0.799 µM with M14 melanoma. The TGI with SK-MEL-2 melanoma turned out to be 0.889 µM; in the assay on SN12C renal it was 3.19 µM; in the assay with SNB-19 CNS, 7.42 µM; in the assay with SNB-75 CNS, 3.04 µM.

`Oc1[nH]c2ccccc2c1/C=c1/ccc2c(c1)N=C(c1ccc(C(F)(F)F)cc1)N=2`: the GI50 with ACHN renal was 3.24 µM; in the assay on CAKI-1 renal, 3.11 µM; with DU-145 prostate it was 4.11 µM; in the assay with HOP-62 NSCLC, 4.94 µM; in the assay on K-562 leukemia, 1.41 µM; in the assay with M14 melanoma, 2.05 µM. Also, the GI50 in the assay on SK-MEL-2 melanoma was 5.08 µM; in the assay with SN12C renal, 6.91 µM; in the assay on SNB-19 CNS, 5.38 µM; in the assay with SNB-75 CNS, 2.79 µM. Moreover, the TGI came out at 17.4 µM with ACHN renal; 13.6 µM with CAKI-1 renal; 16 µM in the assay on DU-145 prostate; 15.6 µM in the assay on HOP-62 NSCLC; 3.46 µM in the assay with K-562 leukemia; 9.04 µM with M14 melanoma. Moreover, the TGI in the assay with SK-MEL-2 melanoma was found to be 15.3 µM; with SN12C renal, 20.6 µM; with SNB-19 CNS it was 21.1 µM; in the assay on SNB-75 CNS it was 12.9 µM.

With `O=C1NC2(CCCCC2)C(=O)N1CCN(CCCl)CCCl`, the TGI is 25 µM with ACHN renal; 25 µM and 175 µM in the assay on CAKI-1 renal; over 25 µM in the assay with DU-145 prostate; > 25 µM and 149 µM with HOP-62 NSCLC; over 250 µM in the assay with K-562 leukemia; over 25 µM in the assay with M14 melanoma. For the same molecule, the TGI with SK-MEL-2 melanoma is 25 µM and > 141 µM; with SN12C renal it was over 250 µM; in the assay on SNB-19 CNS it was over 250 µM; in the assay on SNB-75 CNS it was over 250 µM. The GI50 in the assay with CAKI-1 renal is 19.5 µM; with HOP-62 NSCLC it was over 25 µM; with K-562 leukemia, over 25 µM; in the assay with SK-MEL-2 melanoma, 13.3 µM; in the assay on SN12C renal, over 25 µM; with SNB-19 CNS, over 25 µM. Moreover, in the assay on SNB-75 CNS, the GI50 was over 25 µM.

As to `Cc1ccc(Cl)c(NS(=O)(=O)c2ccc(-c3cnc(C4CC4)o3)cc2)c1`, the GI50 is 0.205 µM in the assay on ACHN renal; 0.0531 µM in the assay with CAKI-1 renal; 0.288 µM in the assay on DU-145 prostate; 0.268 µM in the assay on HOP-62 NSCLC; 0.0479 µM with K-562 leukemia; 0.0698 µM in the assay on M14 melanoma. The GI50 was 0.412 µM in the assay on SK-MEL-2 melanoma, 0.415 µM in the assay on SN12C renal, 0.129 µM in the assay on SNB-19 CNS and 0.0232 µM in the assay with SNB-75 CNS. In addition, the TGI in the assay with ACHN renal was over 72.7 µM; in the assay with CAKI-1 renal it was 10.1 µM; in the assay with DU-145 prostate, over 100 µM; in the assay on HOP-62 NSCLC, over 83.7 µM; in the assay with K-562 leukemia, over 100 µM; in the assay with M14 melanoma, over 42.6 µM. The TGI with SK-MEL-2 melanoma was 50 µM; in the assay on SN12C renal, over 74.9 µM; with SNB-19 CNS, over 100 µM; in the assay with SNB-75 CNS it was 0.164 µM.

For the molecule `Nc1ncc(-c2ccc3ncnc(N4CCc5ccc(Cl)cc54)c3c2)cc1C(F)(F)F`, the GI50 with ACHN renal was 0.569 µM; with CAKI-1 renal, 0.457 µM; in the assay on DU-145 prostate, 1.43 µM; in the assay with HOP-62 NSCLC, 1.74 µM; with K-562 leukemia, 3.98 µM; in the assay with M14 melanoma, 4.63 µM. In addition, the GI50 with SK-MEL-2 melanoma is 5.12 µM; in the assay on SN12C renal, 0.465 µM; in the assay on SNB-19 CNS, 2.63 µM; with SNB-75 CNS, 0.113 µM. Besides, the TGI in the assay on ACHN renal is 13.2 µM; in the assay with CAKI-1 renal it was 5.56 µM; in the assay with DU-145 prostate, 18.2 µM; in the assay with HOP-62 NSCLC, 13.2 µM; in the assay on K-562 leukemia, over 100 µM; in the assay on M14 melanoma it was 26 µM. Moreover, the TGI came out at 23.5 µM with SK-MEL-2 melanoma, 15.9 µM in the assay on SN12C renal, 23.7 µM with SNB-19 CNS and 1.64 µM with SNB-75 CNS.

As for `NC(Cc1c[nH]c2ccc([N+](=O)[O-])cc12)C(=O)O` (configuration not stated), the TGI in the assay with ACHN renal, with CAKI-1 renal, in the assay on DU-145 prostate, in the assay on HOP-62 NSCLC, in the assay on K-562 leukemia and with M14 melanoma was over 100 µM throughout. Besides, the TGI in the assay on SK-MEL-2 melanoma, in the assay with SN12C renal, in the assay on SNB-19 CNS and in the assay with SNB-75 CNS was over 100 µM in each case.
